Experimental data: patent publication US20260256729A1, “CARBAMOYL PHEN[…] AS TAAR1 AGONISTS” (AXSOME THERAPEUTICS, INC., priority 2022, published 2026)
Read-outs that look alike come from different tables or passages of the source.

Tests used:
[1] = target: T1, human norepinephrine transporter (hNET) (Homo sapiens, UniProt P23975); assay: hNET inhibition, in vitro binding and functional studies
[2] = test system: ventral tegmental area (VTA) dopaminergic neurons; assay: Firing frequency of VTA dopaminergic neurons in acute brain slices (electrophysiology); format: cell-based, mouse; conditions: for firing frequency of VTA neurons: acute slices from male C57Bl6/J mice, current clamp; for reduction in firing frequency after pre-treatment with D2 receptor antagonist sulpiride: acute slices
Method: The firing frequency of ventral tegmental area (VTA) dopaminergic neurons (n=4-8 cells/experiment) in acute slice preparations was recorded using electrophysiology and analyzed. Brain slices (250 μm thickness) containing VTA from male C57Bl6/J mice were prepared using standard procedures. Slices were perfused with artificial cerebrospinal fluid (aCSF) and spontaneous action potentials were recorded from dopaminergic neurons in current clamp conditions using […] and pClamp10 (Axon Instruments; Revel, Proc. Natl. Acad. Sci. USA 108(20):8485-90 (2011)). […] In addition, the reduction in firing frequency by solriamfetol or TAAR1 agonist RO5256390 was antagonized by pre-treatment with the D2 receptor antagonist sulpiride (FIG. 3A-3B).

[3] = test system: dopamine transporter deficient (DAT-/-) mice; assay: Open field locomotor activity, DAT-/- mice (hyperlocomotion); format: in vivo, mouse; conditions: subcutaneous, solriamfetol 10, 30 or 100 mg/kg, amphetamine 2 mg/kg
Method: (§1) Open field locomotor activity was assessed using an automated Omnitech Digiscan (AccuScan Instruments, Columbus, OH).

[4] = Binding assay panel for additional targets
[5] = target: human dopamine transporter (hDAT) (Homo sapiens, UniProt Q01959); assay: hDAT inhibition, in vitro binding and functional studies
Chain of human dopamine transporter (hDAT) (Q01959 whole entry): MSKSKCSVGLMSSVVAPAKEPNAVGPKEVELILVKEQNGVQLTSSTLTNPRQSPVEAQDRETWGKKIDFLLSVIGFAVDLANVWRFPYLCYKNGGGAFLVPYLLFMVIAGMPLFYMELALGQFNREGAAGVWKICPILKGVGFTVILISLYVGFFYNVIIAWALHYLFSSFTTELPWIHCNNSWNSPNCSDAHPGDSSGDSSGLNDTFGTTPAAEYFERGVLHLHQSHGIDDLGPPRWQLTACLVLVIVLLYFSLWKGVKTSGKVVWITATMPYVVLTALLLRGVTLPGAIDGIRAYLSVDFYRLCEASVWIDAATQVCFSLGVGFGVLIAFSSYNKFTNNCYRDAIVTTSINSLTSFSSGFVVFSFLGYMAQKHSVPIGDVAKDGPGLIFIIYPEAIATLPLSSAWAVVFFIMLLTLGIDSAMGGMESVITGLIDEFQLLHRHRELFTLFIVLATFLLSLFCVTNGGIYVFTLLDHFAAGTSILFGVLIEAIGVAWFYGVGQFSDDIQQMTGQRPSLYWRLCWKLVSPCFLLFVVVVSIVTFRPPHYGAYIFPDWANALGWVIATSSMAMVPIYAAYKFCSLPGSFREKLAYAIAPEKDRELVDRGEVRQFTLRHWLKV

wild type mice = assay: Open field locomotor activity, wild type mice; format: in vivo, mouse; conditions: subcutaneous, solriamfetol 10, 30 or 100 mg/kg, amphetamine 2 mg/kg
Method: as §1

[6] = target: T1, human norepinephrine transporter (hNET); parameters: host or cells: unnamed cell lines or membrane preparations; conditions: data from published literature (footnote b); cited from earlier work

T1 sequence (P23975 whole entry): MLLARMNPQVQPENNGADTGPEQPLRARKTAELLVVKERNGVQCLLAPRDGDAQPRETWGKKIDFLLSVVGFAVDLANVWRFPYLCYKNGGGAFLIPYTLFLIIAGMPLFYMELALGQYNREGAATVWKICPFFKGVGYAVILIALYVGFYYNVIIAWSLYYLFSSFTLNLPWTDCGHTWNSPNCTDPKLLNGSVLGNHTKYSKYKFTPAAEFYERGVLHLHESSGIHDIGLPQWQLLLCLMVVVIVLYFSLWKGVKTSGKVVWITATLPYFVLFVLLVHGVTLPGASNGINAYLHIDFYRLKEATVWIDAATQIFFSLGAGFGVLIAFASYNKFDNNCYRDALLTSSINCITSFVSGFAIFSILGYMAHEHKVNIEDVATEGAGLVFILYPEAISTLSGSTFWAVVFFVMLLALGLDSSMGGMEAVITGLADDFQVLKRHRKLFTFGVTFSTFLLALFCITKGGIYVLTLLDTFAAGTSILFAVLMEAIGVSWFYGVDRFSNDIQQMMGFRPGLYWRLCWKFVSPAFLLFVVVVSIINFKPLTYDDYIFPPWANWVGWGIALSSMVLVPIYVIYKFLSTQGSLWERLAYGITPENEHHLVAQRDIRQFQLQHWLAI

Compound	IC50 [1]	firing frequency of VTA neurons [2]	reduction in firing frequency after pre-treatment with D2 receptor antagonist sulpiride [2]	hyperlocomotion (total distance traveled in 90 minutes) [3]	locomotor activity (total distance traveled in 90 minutes) (wild type mice)	also measured
NC(=O)C[S+]([O-])C(c1ccccc1)c1ccccc1 (centres unmarked) [Modafinil]	> 100 µM					
CC[C@@H](C[C@H]1COC(N)=N1)c1ccccc1 [RO5256390]		inhibited firing frequency by VTA neurons in a dose-dependent manner	antagonized			
CCN(C[C@H]1COC(N)=N1)c1ccccc1 [ROS166017]				reduced hyperlocomotion		
NC(=O)OC[C@H](N)Cc1ccccc1 [Solriamfetol, (R)-2-amino-3-phenylpropyl carbamate]	14.4 µM	inhibited firing frequency by VTA neurons in a dose-dependent manner	antagonized	reduced hyperlocomotion	did not increase locomotor activity	additional targets in binding assay panel [4]: no additional targets were identified; IC50 [5]: 3.21 µM
CC(N)Cc1ccccc1 (centres unmarked) [amphetamine]				reduced hyperlocomotion	increase locomotor activity	
(+)Methamphetamine						IC50 [6]: 0.0013 µM
